According to patent publication US20240174690A1, “ANNULATED 2-AMINO-3-CYANO THIOPHENES AND DERIVATIVES FOR THE TREATMENT OF CANCER” (BOEHRINGER INGELHEIM INTERNATIONAL GMBH, priority 2021, published 2024):
pIC50: −log10 of the molar value.

Legend:
[1] = system: MKN1 cells; test: MKN1 CTG proliferation assay (120 h) (gastric cancer, wt amplified); format: cell-based; details: Homo sapiens, MKN-1, assay 3, CTG 120 h, read-out: MKN1 (assay 3) IC50
Method in brief: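 MKN1 gastric cancer cells (200–500 per well, RPMI + 10% FCS) given a logarithmic compound dose series and incubated 120 h. Viability by CellTiter-Glo luminescence as percent of DMSO controls. IC50 by four-parameter non-linear regression.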

[2] = Caco-2 assay (permeability PappAB, PappBA, efflux ratio); format: in vitro ADME; details: human, Caco-2, 10 μM test compound, pH 7.4; for Papp A→B at 90 min, 10 μM: apical to basolateral; for efflux ratio at 90 min, 10 μM: efflux ratio PappBA/PappAB, read-out: Caco ER
Method in brief: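 Confluent Caco-2 monolayers on filter supports, 0.25% BSA in both donor and receiver buffer; transport measured a-b and b-a. After 25-30 min preincubation at 37 °C, samples at 0, 30, 60, 90 min quantified by HPLC/MS/MS. Papp from receiver amount per time, filter area and initial donor concentration; efflux ratio = PappBA/PappAB.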

[3] = target: CYP3A4 (Homo sapiens (Human), UniProt P08684); test: Mechanism based inhibition of CYP3A4 assay (MBI 3A4); format: in vitro ADME; details: hydroxy-midazolam formation after 30 min vs 0 min preincubation, 25 uM, human liver microsomes
Method in brief: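 Human CYP3A4 activity after 30 min vs 0 min preincubation with test compound; incubate then diluted 1:10 and midazolam added for a 15 min main incubation. Quenched with acetonitrile; hydroxy-midazolam quantified by LC/MS-MS and expressed as % of the 0 min preincubation formation.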

Chain of CYP3A4 (P08684 whole entry): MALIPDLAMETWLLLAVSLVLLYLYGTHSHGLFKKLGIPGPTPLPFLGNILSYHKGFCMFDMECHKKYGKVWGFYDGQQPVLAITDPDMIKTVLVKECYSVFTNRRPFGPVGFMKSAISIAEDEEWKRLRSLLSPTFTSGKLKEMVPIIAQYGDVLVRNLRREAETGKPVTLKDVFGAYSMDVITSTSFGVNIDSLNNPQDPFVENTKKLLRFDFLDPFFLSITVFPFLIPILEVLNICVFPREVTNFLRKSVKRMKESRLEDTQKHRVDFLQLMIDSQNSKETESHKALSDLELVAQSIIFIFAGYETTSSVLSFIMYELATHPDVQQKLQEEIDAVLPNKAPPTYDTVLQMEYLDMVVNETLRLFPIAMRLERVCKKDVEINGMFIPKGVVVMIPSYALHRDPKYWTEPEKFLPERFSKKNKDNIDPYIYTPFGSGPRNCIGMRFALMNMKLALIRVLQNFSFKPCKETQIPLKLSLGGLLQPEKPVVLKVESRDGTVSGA

SMILES | pIC50 [1] | Papp A→B at 90 min, 10 μM [2] [×10⁻⁶ cm/s] | efflux ratio at 90 min, 10 μM [2] | MBI 3A4 [3] [%]
C[C@H](Oc1cc(Cl)nc(-c2onc3c2CCC[C@@]32CCCc3sc(N)c(C#N)c32)n1)[C@@H]1CCCN1C [I-1] | 5.76 |  |  | 
C[C@H](Oc1nc(-c2onc3c2CCC[C@@]32CCCc3sc(N)c(C#N)c32)cc(N2CCNC3(CC3)C2)n1)[C@@H]1CCCN1C [I-2] |  | 1.2 | 17.5 | 36
C[C@H](Oc1cc(N2CCNC3(CCC3)C2)nc(-c2onc3c2CCC[C@@]32CCCc3sc(N)c(C#N)c32)n1)[C@@H]1CCCN1C [I-3] |  | 1.2 | 20.8 | 51
C[C@H](Oc1cc(-n2ccnc2)nc(-c2onc3c2CCC[C@@]32CCCc3sc(N)c(C#N)c32)n1)[C@@H]1CCCN1C [I-20] |  | 4.3 | 4.9 | 85
CO[C@@H]1C[C@@H]([C@H](C)Oc2cc(-c3ccn(C)n3)nc(-c3onc4c3CCC[C@@]43CCCc4sc(N)c(C#N)c43)n2)N(C)C1 [I-23] |  | 9.2 | 1.5 | 57
Cc1nc(-c2cc(O[C@@H](C)[C@@H]3CCCN3C)nc(-c3onc4c3CCC[C@@]43CCCc4sc(N)c(C#N)c43)n2)cs1 [I-24] |  |  |  | 73
C[C@H](Oc1cc(-c2ccn(CC(C)(C)O)n2)nc(-c2onc3c2CCC[C@@]32CCCc3sc(N)c(C#N)c32)n1)[C@@H]1CCCN1C [I-26] |  | 3 | 10.7 | 71
C[C@H](Oc1cc(-c2ccn(C[C@@H](C)O)n2)nc(-c2onc3c2CCC[C@@]32CCCc3sc(N)c(C#N)c32)n1)[C@@H]1CCCN1C [I-30] |  | 2 | 18.5 | 77
C[C@H](O)Cn1ccc(-c2cc(O[C@@H](C)[C@@H]3CCCN3C)nc(-c3onc4c3CCC[C@@]43CCCc4sc(N)c(C#N)c43)n2)n1 [I-31] |  | 2.3 | 13.9 | 67
C[C@H](Oc1cc(-n2ccnn2)nc(-c2onc3c2CCC[C@@]32CCCc3sc(N)c(C#N)c32)n1)[C@@H]1CCCN1C [I-32] |  |  |  | 41
C[C@H](Oc1cc(-c2ccn3ncnc3c2)nc(-c2onc3c2CCC[C@@]32CCCc3sc(N)c(C#N)c32)n1)[C@@H]1CCCN1C [I-33] |  |  |  | 73
C[C@H](Oc1cc(N2CCN(C)C3(COC3)C2)nc(-c2onc3c2CCC[C@@]32CCCc3sc(N)c(C#N)c32)n1)[C@@H]1C[C@@H](F)CN1C [I-37] |  | 12 | 2 | 45
C[C@H](Oc1nc(-c2onc3c2CCC[C@@]32CCCc3sc(N)c(C#N)c32)cc(N2CCN(C)C3(CC3)C2)n1)[C@@H]1CCCN1C [I-40] |  |  |  | 37
C[C@H](Oc1cc(N2CCN(C)C3(CC3)C2)nc(-c2onc3c2CCC[C@@]32CCCc3sc(N)c(C#N)c32)n1)[C@@H]1CCCN1C [I-41] |  |  |  | 68
C[C@H](Oc1cc(N2C[C@H](C)N(C)[C@@H](C)C2)nc(-c2onc3c2CCC[C@@]32CCCc3sc(N)c(C#N)c32)n1)[C@@H]1CCCN1C [I-43] |  | 2.6 | 6.7 | 64
CO[C@H]1CCN(C)[C@@H]1[C@H](C)Oc1cc(-n2ccc(CC(=O)NC(C)C)n2)nc(-c2onc3c2CCC[C@@]32CCCc3sc(N)c(C#N)c32)n1 [I-48] | 7.77 |  |  | 
CO[C@H]1CCN(C)[C@@H]1[C@H](C)Oc1cc(-n2ccc(C(=O)N[C@@H]3CCOC3)n2)nc(-c2onc3c2CCC[C@@]32CCCc3sc(N)c(C#N)c32)n1 [I-53] | 7.32 |  |  | 
C[C@H](Oc1cc(-n2ccc(C(=O)N[C@@H]3CCOC3)n2)nc(-c2onc3c2CCC[C@@]32CCCc3sc(N)c(C#N)c32)n1)[C@@H]1CCCN1C [I-56] |  |  | 10.4 | 
C[C@H](Oc1cc(N2CC(N(C)C)C2)nc(-c2noc3c2CCC[C@@]32CCCc3sc(N)c(C#N)c32)n1)[C@@H]1CCCN1C [II-7] |  | 1.3 | 21.5 | 

SMILES | pIC50 [1] | Papp A→B at 90 min, 10 μM [2] [×10⁻⁶ cm/s] | efflux ratio at 90 min, 10 μM [2] | MBI 3A4 [3] [%]
C[C@H](Oc1cc(N2CCN(CCO)CC2)nc(-c2noc3c2CCC[C@@]32CCCc3sc(N)c(C#N)c32)n1)[C@@H]1CCCN1C [II-8] |  | 1.1 | 12.7 | 
C[C@H](Oc1cc(N2CCN(C)C3(COC3)C2)nc(-c2noc3c2CCC[C@@]32CCCc3sc(N)c(C#N)c32)n1)[C@@H]1CCCN1C [II-13] |  | 1.4 | 21.4 | 70
C[C@H](Oc1cc(N2CC[C@H](N3CCCC3)C2)nc(-c2noc3c2CCC[C@@]32CCCc3sc(N)c(C#N)c32)n1)[C@@H]1CCCN1C [II-14] |  | 1 | 32.3 | 83
C[C@H](Oc1cc(N2CC[C@H](N(C)C)C2)nc(-c2noc3c2CCC[C@@]32CCCc3sc(N)c(C#N)c32)n1)[C@@H]1C[C@@H](F)CN1C [II-15] |  |  | 5.3 | 76
C[C@H]1CN(C)CCCN1c1cc(N2CC[C@H](N(C)C)C2)nc(-c2noc3c2CCC[C@@]32CCCc3sc(N)c(C#N)c32)n1 [II-16] |  | 0.5 | 33.3 | 
C[C@H](Oc1cc(-n2ccc(C(=O)NC3COC3)n2)nc(-c2noc3c2CCC[C@@]32CCCc3sc(N)c(C#N)c32)n1)[C@@H]1CCCN1C [II-25] |  | 1.1 | 22.7 | 77
C[C@H](Oc1cc(-n2ccc(C(=O)NC3(C)COC3)n2)nc(-c2noc3c2CCC[C@@]32CCCc3sc(N)c(C#N)c32)n1)[C@@H]1CCCN1C [II-26] |  | 11 | 5.8 | 58
C[C@H](Oc1cc(N2CCNC(C)(C)C2)nc(-c2noc3c2CCC[C@@]32CCCc3sc(N)c(C#N)c32)n1)[C@@H]1CCCN1C [II-32] |  | 0.3 | 76.6 | 79
C[C@H](Oc1cc(N2C[C@H]3CN(C)C[C@H]3C2)nc(-c2noc3c2CCC[C@@]32CCCc3sc(N)c(C#N)c32)n1)[C@@H]1CCCN1C [II-33] |  | 0.4 | 52.3 | 
CN[C@H]1CCN(c2cc(O[C@@H](C)[C@@H]3CCCN3C)nc(-c3noc4c3CCC[C@@]43CCCc4sc(N)c(C#N)c43)n2)C1 [II-35] |  | < 0.5 |  | 
C[C@H](Oc1cc([C@@H]2CCN(C)C2)nc(-c2noc3c2CCC[C@@]32CCCc3sc(N)c(C#N)c32)n1)[C@@H]1CCCN1C [II-37] |  | 0.2 | 121 | 81
C[C@H](Oc1cc([C@H]2CCN(C)C2)nc(-c2noc3c2CCC[C@@]32CCCc3sc(N)c(C#N)c32)n1)[C@@H]1CCCN1C [II-38] |  | 0.2 | 104 | 
C[C@H](Oc1cc(N2CCNC3(CCC3)C2)nc(-c2noc3c2CCC[C@@]32CCCc3sc(N)c(C#N)c32)n1)[C@@H]1CCCN1C [II-40] |  | 0.8 | 39.7 | 
C[C@H](Oc1cc(-c2ccn([C@H]3CCCOC3)n2)nc(-c2noc3c2CCC[C@@]32CCCc3sc(N)c(C#N)c32)n1)[C@@H]1CCCN1C [II-42] |  |  | 2 | 63
C[C@H](Oc1cc(-c2ccn(C[C@@H]3CCCO3)n2)nc(-c2noc3c2CCC[C@@]32CCCc3sc(N)c(C#N)c32)n1)[C@@H]1CCCN1C [II-43] |  | 10 | 1.2 | 70
C[C@H](Oc1cc(C2CCCO2)nc(-c2noc3c2CCC[C@@]32CCCc3sc(N)c(C#N)c32)n1)[C@@H]1CCCN1C (some centres unmarked) [II-44] |  | 15 | 1.5 | 71
C[C@H](Oc1nc(-c2noc3c2CCC[C@@]32CCCc3sc(N)c(C#N)c32)cc(N2C[C@H](C)N[C@@H](C)C2)n1)[C@@H]1CCCN1C [II-46] |  | 0.8 | 28.8 | 91
C[C@H](Oc1cc(N2CCC(N(C)C)CC2)nc(-c2noc3c2CCC[C@@]32CCCc3sc(N)c(C#N)c32)n1)[C@@H]1CCCN1C [II-48] |  | 0.6 | 32.2 | 84
